How the values were obtained:
UACC-254 = test: NCI SRB screen, UACC-254; details: Homo sapiens, read-out: GI50 values
MDA-MB-468 = test: NCI SRB screen, MDA-MB-468; details: Homo sapiens, MDA-MB-468, read-out: GI50 values

Compound | GI50 (UACC-254) | GI50 (MDA-MB-468)
Fc1ccc2[nH]c(-c3cc(-c4ccc5c(c4)OCO5)n[nH]3)nc2c1 [7g, 2-(3-(benzo[d][1,3]dioxol-5-yl)-1H-pyrazol-5-yl)-5-fluoro-1H-benzo[d]imidazole] | 1020 nM | 
COc1ccc2[nH]c(-c3cc(-c4cc(OC)c(OC)c(OC)c4)n[nH]3)nc2c1 [9f, 5-methoxy-2-(3-(3,4,5-trimethoxyphenyl)-1H-pyrazol-5-yl)-1H-benzo[d]imidazole] |  | 380 nM

— US9951049B2, “Pyrazole linked benzimidazole conjugates and a process for preparation thereof” (Council of Scientific & Industrial Reseach, priority 2014, dated 2018)
